# Data: patent US9850227B2 (YUHAN CORPORATION, priority 2011, dated 2017)
# Counter-ions that a name gives are not always drawn.
# Target: T1, human 5-HT4(a) (Homo sapiens, UniProt Q13639)
# T1 construct: host or cells: GeneBIAzer HTR4-CRE-bla CHO-K1 cells
# Assay: Evaluation of agonistic activity in CHO-K1 cells expressing human 5-HT4(a) (GeneBIAzer HTR4-CRE-bla CHO-K1 cells, beta-lactamase fluorescence ratio, EC50 from 8 concentrations)
# Type: cell-based
# Description: Evaluation of Agonistic Activity in CHO-K1 Cells Expressing Human 5-HT4(a)
# As CHO-K1 cells stably expressing human 5-HT4(a), we used the GeneBIAzer HTR4-CRE-bla CHO-K1 cells (Invitrogen Corp.). The cells were cultured, under the condition of 37° C. and 5% CO2, in a DMEM supplemented with 10% fetal bovine serum (FBS), 25 mM HEPES (pH7.4), 600 μg/ml hygromycin B, 0.1 mM non-essential amino acids, 100 unit/ml penicillin and 100 μg/ml streptomycin. Subcultures were performed three times per one week, each being at less than 80% confluence. At the previous day before treating test compounds, the cells were collected using 0.5% trypsin/EDTA and then diluted with a DMEM supplemented with 1% FBS, 25 mM HEPES, and 0.1 mM non-essential amino acids into 3.125×10^5 cells/ml. 32 μl of the diluted cells were added into 384-well plate (10^4 cells per well) and then incubated overnight. After the overnight culture, 8 μl of the medium having 1% of DMSO was added into the cell-free control well and the non-stimulating control well, respectively. 8 μl of the respective test compound dilutions (which had been prepared by diluting by 100-times with the medium as mentioned in the above) having 1% of DMSO were added to the respective remaining wells. After being cultured in the incubator for 5 hours, the wells of the 384-plate were treated with the substrate solution (8 μl per well) prepared according to the vendor's instruction (i.e., Invitrogen's instruction), and then incubated in the dark room for additional two hours. Agonistic activities on 5-HT4 receptor were evaluated, on the basis of fluorescence values of the cleavage-products by beta-lactamase. After exciting to 410 nm of wavelength using a fluorescence detector (Genios Pro), we measured the fluorescence values at two emission wavelengths (first wavelength: 465 nm, second wavelength: 535 nm). Data were analyzed on the basis of the ratio of fluorescence intensities of each well at the respective wavelengths. Each EC50 value was calculated by non-linear regression analysis using the “GraphPad Prism” program, based on the activities according to 8-different concentrations of the test compounds.
# T1 sequence (Q13639 1-387 isoform Q13639-2): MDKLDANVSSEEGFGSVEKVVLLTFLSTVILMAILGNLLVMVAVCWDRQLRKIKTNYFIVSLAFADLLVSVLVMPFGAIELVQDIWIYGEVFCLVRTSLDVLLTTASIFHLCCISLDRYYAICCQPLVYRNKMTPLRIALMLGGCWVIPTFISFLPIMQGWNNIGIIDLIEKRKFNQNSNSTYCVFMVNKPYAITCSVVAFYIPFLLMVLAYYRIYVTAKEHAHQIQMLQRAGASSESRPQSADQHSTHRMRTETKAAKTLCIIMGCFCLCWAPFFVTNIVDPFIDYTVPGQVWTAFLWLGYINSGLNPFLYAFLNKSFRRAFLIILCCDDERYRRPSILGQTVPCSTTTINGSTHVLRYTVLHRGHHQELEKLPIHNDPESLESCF
row,Structure (SMILES),EC50 [pM]
1,"CCCc1cc(N2CCC[C@@H](NCc3ccc(O)cc3)C2)nc(Nc2ccc(C)c(C#N)c2)n1 [Example 219, (R)-5-{4-[3-(4-hydroxybenzylamino)piperidin-1-yl]-6-propylpyrimidin-2-ylamino}-2-methylbenzonitrile]",10
2,"CCCCc1cc(N2CCC[C@@H](NC(C)=O)C2)nc(Nc2ccc(C)c(C#N)c2)n1 [Example 295, (R)—N-{1-[6-butyl-2-(3-cyano-4-methylphenylamino)pyrimidin-4-yl]piperidin-3-yl}acetamide]",8.6
3,"CCCc1cc(N2CCC[C@@H](N)C2)nc(Nc2ccc3cc[nH]c3c2)n1 [Example 264, (R)—N-[4-(3-aminopiperidin-1-yl)-6-propylpyrimidin-2-yl]-1H-indol-6-amine]",328
4,"CCCc1cc(N2CCC[C@@H](NCC3CC3)C2)nc(Nc2cccc(C#N)c2)n1 [Example 224, (R)-3-{4-[3-(cyclopropylmethylamino)piperidin-1-yl]-6-propylpyrimidin-2-ylamino}benzonitrile]",70
5,"CCCc1cc(N2CCC[C@@H](NC(=O)CO)C2)nc(Nc2cc(N)cc(C(F)(F)F)c2)n1 [Example 247, (R)—N-(1-{2-[3-amino-5-(trifluoromethyl)phenylamino]-6-propylpyrimidin-4-yl}piperidin-3-yl)-2-hydroxyacetamide]",23
6,"CCCc1cc(N2CCCC3CCCCC32)nc(Nc2cccc([N+](=O)[O-])c2)n1 (stereo not drawn) [Example 188, N-(3-nitrophenyl)-4-(octahydroquinolin-1(2H)-yl)-6-propylpyrimidin-2-amine]",430
7,"CCCCc1cc(N2CCC[C@@H](NC(C)=O)C2)nc(Nc2cc(N)cc(C#N)c2)n1 [Example 236, (R)—N-{1-[2-(3-amino-5-cyanophenylamino)-6-butylpyrimidin-4-yl]piperidin-3-yl}acetamide]",8.8
8,"CCCc1cc(N2CCC[C@@H](N)C2)nc(Nc2cc(N)cc(C#N)c2)n1 [Example 260, (R)-3-amino-5-{[4-(3-aminopiperidin-1-yl)-6-propylpyrimidin-2-yl]amino}benzonitrile]",7.5
9,"CCCc1cc(N2CCCCC2CCO)nc(Nc2ccc(Cl)c(N)c2)n1 (stereo not drawn) [Example 182, 2-{1-[2-(3-amino-4-chlorophenylamino)-6-propylpyrimidin-4-yl]piperidin-2-yl}ethanol]",22
10,"CCCCc1cc(N2CCC[C@@H](NC(C)=O)C2)nc(Nc2cccc(C#N)c2)n1 [Example 272, (R)—N-{1-[6-butyl-2-(3-cyanophenylamino)-pyrimidin-4-yl]-piperidin-3-yl}-acetamide hydrochloride]",11
11,"CCCc1cc(N2CCCCC2CC)nc(Nc2ccc(Cl)c([N+](=O)[O-])c2)n1 (stereo not drawn) [Example 101, N-(4-chloro-3-nitrophenyl)-4-(2-ethylpiperidin-1-yl)-6-propylpyrimidin-2-amine]",240
12,"CCCc1cc(N2CCCCC2CC)nc(Nc2cc(OC)ccc2C)n1 (stereo not drawn) [Example 112, 4-(2-ethylpiperidin-1-yl)-N-(5-methoxy-2-methylphenyl)-6-propylpyrimidin-2-amine]",370
13,"CCCc1cc(N2CCNC[C@H]2C)nc(Nc2ccc(C)c([N+](=O)[O-])c2)n1 [Example 122, (R)-N-(4-methyl-3-nitrophenyl)-4-(2-methylpiperazin-1-yl)-6-propylpyrimidin-2-amine]",11
14,"CCCc1cc(N2CCC[C@@H](NCC(C)C)C2)nc(Nc2ccc(C)c(C#N)c2)n1 [Example 209, (R)-5-{4-[3-(isobutylamino)piperidin-1-yl]-6-propylpyrimidin-2-ylamino}-2-methylbenzonitrile]",15
15,"CCCc1cc(N2CCC[C@@H](NCC3CC3)C2)nc(Nc2ccc(N)c([N+](=O)[O-])c2)n1 [Example 228, (R)—N^1-{4-[3-(cyclopropylmethylamino)piperidin-1-yl]-6-propylpyrimidin-2-yl}-3-nitrobenzene-1,4-diamine]",3.5
16,"CCCc1cc(N2CCC[C@@H](NC(C)C)C2)nc(Nc2ccc(C)c(C#N)c2)n1 [Example 212, (R)-5-{4-[3-(isopropylamino)piperidin-1-yl]-6-propylpyrimidin-2-ylamino}-2-methylbenzonitrile]",100
17,"CCCc1cc(N2CCCCC2CC)nc(Nc2cccc(C#N)c2)n1 (stereo not drawn) [Example 111, 3-[4-(2-ethylpiperidin-1-yl)-6-propylpyrimidin-2-ylamino]benzonitrile]",91
18,"CCCc1cc(N2CCCC3CCCCC32)nc(Nc2cnc3ccccc3c2)n1 (stereo not drawn) [Example 203, N-[4-(octahydroquinolin-1(2H)-yl)-6-propylpyrimidin-2-yl]quinolin-3-amine]",140
19,"CCCCc1cc(N2CCC[C@@H](NCCCSC)C2)nc(Nc2ccc(C)c(C#N)c2)n1 [Example 305, (R)-5-{[4-butyl-6-(3-{[3-(methylthio)propyl]amino}piperidin-1-yl)pyrimidin-2-yl]amino}-2-methylbenzonitrile]",9.1
20,"CCCc1cc(N2CCC[C@@H](NC(=O)CO)C2)nc(Nc2cccc(C#N)c2)n1 [Example 245, (R)—N-{1-[2-(3-cyanophenylamino)-6-propylpyrimidin-4-yl]piperidin-3-yl}-2-hydroxyacetamide]",47

# Other lines, results leading:
row,EC50 [pM],Structure (SMILES)
1,1.9,"CCCCc1cc(N2CCC[C@@H](NC)C2)nc(Nc2ccc(N)c(C(F)(F)F)c2)n1 [Example 314, (R)—N^1-{4-butyl-6-[3-(methylamino)piperidin-1-yl]pyrimidin-2-yl}-3-(trifluoromethyl)benzene-1,4-diamine]"
2,2.8,"CCCc1cc(N2CCC[C@@H](NCC)C2)nc(Nc2ccc(N)c(C(F)(F)F)c2)n1 [Example 291, (R)—N^1-[4-(3-ethylaminopiperidin-1-yl)-6-propylpyrimidin-2-yl]-3-(trifluoromethyl)benzene-1,4-diamine]"
3,2.6,"CCCCc1cc(N2CCC[C@@H](NC)C2)nc(Nc2ccc(C)c(C#N)c2)n1 [Example 311, (R)-5-({4-butyl-6-[3-(methylamino)piperidin-1-yl]pyrimidin-2-yl}amino)-2-methylbenzonitrile]"
4,26,"CCCc1cc(N2CCC[C@@H](NCC)C2)nc(Nc2ccc(F)c(C#N)c2)n1 [Example 271, (R)-5-[4-(3-ethylaminopiperidin-1-yl)-6-propylpyrimidin-2-ylamino]-2-fluorobenzonitrile]"
5,5,"CCCc1cc(N2CCC[C@@H](NC)C2)nc(Nc2ccc(N)c(C(F)(F)F)c2)n1 [Example 285, (R)—N^1-[4-(3-methylaminopiperidin-1-yl)-6-propylpyrimidin-2-yl]-3-(trifluoromethyl)benzene-1,4-diamine]"
6,6.7,"CCCCc1cc(N2CCC[C@@H](NC)C2)nc(Nc2ccc(N)c(C#N)c2)n1 [Example 316, (R)-2-amino-5-({4-butyl-6-[3-(methylamino)piperidin-1-yl]pyrimidin-2-yl}amino)benzonitrile]"
7,17,"CCCc1cc(N2CCC[C@@H](NCC3CC3)C2)nc(Nc2ccc(F)c(N)c2)n1 [Example 227, (R)—N^1-{4-[3-(cyclopropylmethylamino)piperidin-1-yl]-6-propylpyrimidin-2-yl}-4-fluorobenzene-1,3-diamine]"
8,8.4,"CCCc1cc(N2CCC[C@@H](NC)C2)nc(Nc2ccc(C)c(C#N)c2)n1 [Example 283, (R)-2-methyl-5-[4-(3-methylaminopiperidin-1-yl)-6-propylpyrimidin-2-ylamino]benzonitrile]"
9,6.6,"CCCCc1cc(N2CCC[C@@H](NC)C2)nc(Nc2ccc(F)c(N)c2)n1 [Example 317, (R)—N^1-{4-butyl-6-[3-(methylamino)piperidin-1-yl]pyrimidin-2-yl}-4-fluorobenzene-1,3-diamine]"
10,18,"CCCCc1cc(N2CCC[C@@H](NC)C2)nc(Nc2ccc(F)c(C(F)(F)F)c2)n1 [Example 320, (R)-4-butyl-N-[4-fluoro-3-(trifluoromethyl)phenyl]-6-[3-(methylamino)piperidin-1-yl]pyrimidin-2-amine]"
11,9.1,"CCCCc1cc(N2CCC[C@@H](NC(C)=O)C2)nc(Nc2ccc(Cl)c(N)c2)n1 [Example 242, (R)—N-{1-[2-(3-amino-4-chlorophenylamino)-6-butylpyrimidin-4-yl]piperidin-3-yl}acetamide]"
12,2.9,"CCCCc1cc(N2CCC[C@@H](NC)C2)nc(Nc2ccc(N)c([N+](=O)[O-])c2)n1 [Example 328, (R)—N^1-{4-butyl-6-[3-(methylamino)piperidin-1-yl]pyrimidin-2-yl}-3-nitrobenzene-1,4-diamine dihydrochloride]"
13,15,"CCCCc1cc(N2CCC[C@@H](NC(C)=O)C2)nc(Nc2ccc(F)c([N+](=O)[O-])c2)n1 [Example 234, (R)—N-{1-[6-butyl-2-(4-fluoro-3-nitrophenylamino)pyrimidin-4-yl]piperidin-3-yl}acetamide]"
